Holding throughout (type): cell-based, human
The subject of one assay is SAN cells. Put plainly: MTT cell growth rate, SAN melanoma cells. The settings on record: 100 μM, 48 h, MTT. How it is done:
The human melanoma cell line A2058, kindly provided by CEINGE (Naples, Italy), and SAN cells were derived from lymph nodal metastases and grown in DMEM and RPMI 1640, respectively, supplemented with 10% FBS, 2 mM L-glutamine, 100 IU/mL penicillin G, and 100 μg/mL streptomycin in humidified incubator at 37°C under 5% CO2 atmosphere. All cells were split and seeded every three days and used during the exponential phase of growth. Cell treatments were always carried after 24 h from plating.
The MTT assay was used to detect cell proliferation essentially as previously described. Briefly, A2058 and SAN cells were plated in 96-well microtiter plates (100 μL/well) at 4000 and 6000 cells/well, respectively. After 24-h seeding, cells were treated with the selected compounds added at 25, 50 or 100 μM concentration, or with 0.5% (v/v) DMSO as a vehicle control. After 24-h, 48-h or 72-h treatment, and upon the addition of 10 μL of MTT solution in the dark, the plate was incubated for 3 h at 37°C under CO2 atmosphere. After medium aspiration and solubilization of formazan crystals, absorbance was measured at 570 nm, using an ELISA plate reader (Bio-Rad, Milano, Italy).

In the next assay the test system is A2058 cells. Put plainly: Cell cycle analysis by PI flow cytometry, A2058 cells. Particulars: A2058, 100 μM. How it is done: As CDC25 phosphatases are key cell cycle regulators, the effect of 7 on cell cycle progression was investigated in detail. To this aim, asynchronously growing A2058 and SAN cells were treated at different times with 100 μM compound 7, and then cell cycle analysis was cytofluorimetrically monitored after propidium iodide (PI) incorporation. […] After 16-h incubation with […], cells were mainly and almost equally distributed in G0/G1 and G2/M phases (the ratio between them being 0.96), whereas the cellular population in the S phase was essentially undetectable. […] A similar general picture emerged from the effect of compound 7 on cell cycle progression of SAN cells (Supplementary Figure S3).
Cells were seeded into 6-well plates at 3 × 10^5 cells/well for 24 h at 37°C; after the addition of 100 μM 7 or 0.5% DMSO as a vehicle control, the incubation of treated cells continued for 16 or 24 h. After each treatment, cells were harvested with trypsin, centrifuged and the pellet was resuspended in phosphate-buffered saline (PBS). For cell cycle analysis, cells were fixed with 70% (v/v) cold ethanol and stored at −20°C for 1 h. […] After incubation at 4°C for 30 min, cells were analyzed with a FACScan flow cytometer (Becton Dickinson) for evaluating the distribution in cell cycle phases or the presence of nuclei with a DNA content lower than the diploid.

The subject of a further assay is p53 protein levels. As to the kind of experiment: Western blotting of p53 protein levels in A2058 cells. The settings on record: A2058, 100 μM, 8 h; significant after 16 h. How it is done: (§1) The molecular mechanisms that regulate the cytotoxic potential of 7 in melanoma cells were further investigated through the evaluation of the activation state of protein kinase B (pAkt), one of the key proteins involved in the control and regulation of cell survival. To this aim, the protein levels of pAkt have been analyzed after 2- and 4-h incubation of A2058 cells with 7. […] It is known that Akt regulates the process of cell survival by phosphorylating different substrates, directly or indirectly involved in the apoptotic program. One of these targets is p53, a protein with a tumor-suppressor activity that regulates the cell cycle, as well as the expression of several genes involved in the apoptosis. […]
(§2) A2058 cells were seeded into 6-well-plates (3 × 10^5 cells/plate) for 24 h at 37°C and then treated at different times with 100 μM compound 7 or 0.5% DMSO. […] The protein concentration was determined by the method of Bradford, using bovine serum albumin (BSA) as standard. […] Membranes were then analysed by an enhanced chemiluminescence reaction, using Super Signal West Pico kit (Pierce) according to manufacturer's instruction; signals were visualized by autoradiography.
On the technique in general: In western blotting, separated proteins are transferred to a membrane and probed.

Another assay relates to pAkt protein levels. Put plainly: Western blotting of pAkt (Ser473) in A2058 cells. Particulars: A2058, 100 μM, 2 and 4 h. Here is the method: as §1, §2
Another assay deals with CDC25B protein levels. As to the kind of experiment: Western blotting of CDC25B protein levels in A2058 cells. Particulars: A2058, 100 μM, up to 16 h. How it is done: To better investigate the effect of this inhibitor at the molecular level, we evaluated if the treatment of A2058 cells with 7 affected also the protein levels of the three CDC25 forms. […] On the other hand, the protein levels of CDC25B were unaffected by treatment of A2058 cells with 7 up to 16 h.
A2058 cells were seeded into 6-well-plates (3 × 10^5 cells/plate) for 24 h at 37°C and then treated at different times with 100 μM compound 7 or 0.5% DMSO. After treatment, cells were harvested, washed with PBS and then lysed in ice-cold modified radio immunoprecipitation assay (RIPA) buffer (50 mM Tris-HCl, pH 7.4, 150 mM NaCl, 1% Nonidet P-40, 0.25% sodium deoxycholate, 1 mM Na3VO4 and 1 mM NaF), supplemented with protease inhibitors and incubated for 30 min on ice. The supernatant obtained after centrifugation at 12,000 rpm for 30 min at 4°C constituted the total protein extract. The protein concentration was determined by the method of Bradford, using bovine serum albumin (BSA) as standard. Equal amounts of total protein extracts were used for Western blot analysis. […] Membranes were then analysed by an enhanced chemiluminescence reaction, using Super Signal West Pico kit (Pierce) according to manufacturer's instruction; signals were visualized by autoradiography.

With `O=C(O)C1CCCCC1c1c2ccc(=O)cc-2oc2cc(O)ccc12` (stereo not drawn) [Compound 7, 2-(6-hydroxy-3-oxo-3H-xanthen-9-yl)cyclohexanecarboxylic acid], in the assay on SAN cells, the cell growth rate entry is reported as “significant reduction of cell growth rate”. In addition, the “ratio between G0/G1 and G2/M” value in the assay with A2058 cells (16 h, vehicle 0.96) is listed as 0.38; with A2058 cells (24 h, untreated 1.23) it was 0.45. Besides, the p53 protein level result in the assay with p53 protein levels was “higher level of p53 compared to control”. The “protein level of pAkt with respect to total Akt” value in the assay with pAkt protein levels is listed as “early reduction of the protein level of pAkt”. The CDC25B protein levels result in the assay with CDC25B protein levels is listed as “unaffected”.

For the origin of these results see article PMC4741889, “Ligand-based chemoinformatic discovery of a novel small molecule inhibitor targeting CDC25 dual specificity phosphatases and displaying in vitro efficacy against melanoma cells” (Oncotarget, 2015).
